Source: patent US9974825B2, “Peptides Des-[Asp1]-[Ala1], angiotensin-(1-7) agonist and pharmaceutical compositions for the treatment of diseases” (UNIVERSIDADE FEDERAL DE MINAS GERAIS, priority 2008, dated 2018)
Blank lines part the entries; values can stand above or below the compound they belong to.

What was measured:
[1] = molecular target: Mas receptor; details: Dong et al., Cell 2001; read-out: EC50, affinity with Mas receptor; cited from earlier work
[2] = molecular target: T1, angiotensin converter enzyme (ACE) (Rattus norvegicus, UniProt P47820); test: Plasmatic ACE activity, fluorimetric method with Hip-His-Leu substrate; format: biochemical, Wistar rats; details: 5 mM enalaprilate, assay specificity control
T1 construct: from tissue; host or cells: plasma of Wistar rats
T1 sequence (P47820 36-1238 limits assumed): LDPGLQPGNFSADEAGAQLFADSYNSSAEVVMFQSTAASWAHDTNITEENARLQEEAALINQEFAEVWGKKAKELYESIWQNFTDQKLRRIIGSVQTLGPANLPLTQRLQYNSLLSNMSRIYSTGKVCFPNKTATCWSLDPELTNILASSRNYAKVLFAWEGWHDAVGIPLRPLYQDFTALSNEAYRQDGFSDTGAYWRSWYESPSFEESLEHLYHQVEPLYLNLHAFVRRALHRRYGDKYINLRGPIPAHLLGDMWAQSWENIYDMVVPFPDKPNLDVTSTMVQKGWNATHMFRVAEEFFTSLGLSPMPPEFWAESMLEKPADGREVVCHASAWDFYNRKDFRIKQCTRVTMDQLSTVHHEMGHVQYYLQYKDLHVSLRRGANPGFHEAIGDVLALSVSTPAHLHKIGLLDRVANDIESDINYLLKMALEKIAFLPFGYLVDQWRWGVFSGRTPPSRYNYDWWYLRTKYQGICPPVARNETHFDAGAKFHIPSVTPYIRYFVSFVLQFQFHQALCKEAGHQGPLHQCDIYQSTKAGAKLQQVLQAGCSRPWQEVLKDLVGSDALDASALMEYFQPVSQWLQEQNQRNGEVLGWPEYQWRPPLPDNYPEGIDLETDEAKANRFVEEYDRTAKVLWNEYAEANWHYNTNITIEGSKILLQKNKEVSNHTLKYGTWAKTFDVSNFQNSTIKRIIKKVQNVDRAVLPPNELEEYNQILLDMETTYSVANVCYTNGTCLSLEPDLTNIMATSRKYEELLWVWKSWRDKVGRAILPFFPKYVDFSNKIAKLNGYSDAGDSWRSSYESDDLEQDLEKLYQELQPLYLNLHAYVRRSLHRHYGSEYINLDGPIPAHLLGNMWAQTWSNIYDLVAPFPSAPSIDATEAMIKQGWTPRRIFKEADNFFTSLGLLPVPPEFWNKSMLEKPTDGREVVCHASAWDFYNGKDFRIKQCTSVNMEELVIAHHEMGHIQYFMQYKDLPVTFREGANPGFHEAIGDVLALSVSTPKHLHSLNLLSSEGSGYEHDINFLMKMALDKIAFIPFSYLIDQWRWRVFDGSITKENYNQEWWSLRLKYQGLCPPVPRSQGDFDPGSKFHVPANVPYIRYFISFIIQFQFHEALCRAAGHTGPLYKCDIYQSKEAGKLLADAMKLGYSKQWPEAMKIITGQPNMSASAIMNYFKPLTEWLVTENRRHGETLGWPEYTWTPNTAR
Procedure: The plasmatic activity of ACE was measured by the fluorimetric method using Hip-His-Leu as substrate, as previously described (Santos, R. A. S. et al., Hypertension, 7:244-52, (1985)). Plasma aliquots (10 μL) of Wistar rats were incubated with a […] solution containing a 1 mM substrate (Hip-His-Leu) and 0.4 M of sodium borate, 0.9 M NaCl (pH=8.3) for 15 minutes at 37° C. The reaction was halted by adding 1.2 mL of NaOH at 0.34 M and […] of orthoftaldehyde (20 mg/mL in methanol). After 10 minutes at environment temperature, […] of HCl at 3 N was added. Later on, after a 5-minute 800×g centrifugation, the floating solution fluorescence was measured (a 365 nm excitation and a 495 nm emission). The blank was prepared by inverting the addition order of plasma and NaOH. A 0.5 to 20 nmol curve, containing the product (His-Leu) resulting of the substrate break (Hip-His-Leu) by ACE plasmatic activity, was prepared in each assay. In order to test the inhibition effect of ACE by the PEPTIDEs Ang-(1-7) and Ala^1-Ang-(1-7), 3.3×10^−7 or 3.3×10^−6 M of each PEPTIDE was added before the plasma addition. […] The percentage of enzymatic activity inhibition was estimated in function of the maximum activity obtained.

[3] = system: wild-type mice; details: Jankowski et al. 2007; cited from earlier work
[4] = molecular target: T2, AT2 receptor (Homo sapiens, UniProt P50052); details: Jankowski et al. 2007; cited from earlier work
T2 sequence (P50052 1-363): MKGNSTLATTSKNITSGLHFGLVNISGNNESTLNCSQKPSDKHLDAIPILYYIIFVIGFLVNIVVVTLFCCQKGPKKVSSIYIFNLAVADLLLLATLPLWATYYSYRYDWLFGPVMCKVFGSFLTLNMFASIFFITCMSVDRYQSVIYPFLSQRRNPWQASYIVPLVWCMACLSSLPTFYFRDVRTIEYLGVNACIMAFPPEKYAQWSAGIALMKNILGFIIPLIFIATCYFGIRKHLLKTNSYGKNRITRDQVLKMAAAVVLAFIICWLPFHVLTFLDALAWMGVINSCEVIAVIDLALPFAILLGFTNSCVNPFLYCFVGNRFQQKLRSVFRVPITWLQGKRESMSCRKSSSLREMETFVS

[5] = molecular target: T3, AT1 receptor (Homo sapiens, UniProt P30556); details: Jankowski et al. 2007; cited from earlier work
T3 sequence (P30556 1-359): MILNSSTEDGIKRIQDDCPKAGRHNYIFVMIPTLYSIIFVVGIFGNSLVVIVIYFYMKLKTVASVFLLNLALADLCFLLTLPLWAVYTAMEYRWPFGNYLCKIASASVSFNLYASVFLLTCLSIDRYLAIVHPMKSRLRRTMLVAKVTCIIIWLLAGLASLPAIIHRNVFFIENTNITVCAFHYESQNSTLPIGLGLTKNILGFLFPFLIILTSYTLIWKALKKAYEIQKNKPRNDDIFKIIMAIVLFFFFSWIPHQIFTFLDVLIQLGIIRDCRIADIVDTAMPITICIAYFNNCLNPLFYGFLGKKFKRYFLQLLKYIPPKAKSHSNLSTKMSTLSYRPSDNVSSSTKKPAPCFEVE

Compound: NPFF: one PEPTIDE called NPFF, which had shown affinity with the Mas receptor, though reasonably feeble
EC50 [1]: ~400 nM

inhibition of the ACE activity [2]: 98%
Compound: C[C@H](N[C@@H](CCc1ccccc1)C(=O)O)C(=O)N1CCC[C@H]1C(=O)O [enalaprilate]

Compound: Ala^1-Arg^2-Val^3-Tyr^4-Ile^5-His^6-Pro^7-Phe^8 (ARVYIHPF; Angiotensin-2; UniProt P01019 25-32, looked up, variant D1A) [Ala^1-Ang II]
pressor activity compared with Ang II [3]: only a fraction of the Ang II activity
affinity with AT2 receptor compared with Ang II [4]: does not substantially differ from Ang II
affinity with AT1 receptor compared with Ang II [5]: does not substantially differ from Ang II
